Assay [1] deals with plasma sPLA2. Description: sPLA2 enzyme activity in rat plasma ex vivo with added lysoPC (10-pyrene substrate). It is filed as biochemical. To be noted: for type of inhibition of plasma sPLA2 enzyme activity: kinetic studies, rat plasma ex vivo; for Ki / Km / Vmax: lysoPC 20 μM; for Ki: all reactions with substrates above 15 μM, read-out: Ki ± s.e.m.; for Km / Vmax: plasma 10% final. The method, then:
(§1) Blood was obtained from the trunk of 32 female Sprague Dawley rats (200–250 g) after decapitation. Blood samples were treated with citrate-phosphate-dextrose anticoagulant (1:10, Sigma), and plasma prepared by centrifugation after which samples were frozen at -80° until used. For 16 of these animals, plasma samples were pooled from 4–6 rats for ex vivo enzyme assays. The other 16 rats received lysoPC treatments (see below). The Institutional Animal Care and Use Committee of Drexel University College of Medicine approved all specific procedures of this study. Purified group IA secreted phospholipase A2 from the venom of the Mozambique spitting cobra (Naja mossambica) was obtained from Sigma (St. Louis, MO).
(§2) Enzyme assays were conducted as in previous studies using a Victor 3 fluorescent reader (Perkin Elmer, Waltham, MA). The substrate was 1-palmitoyl-2-pyrenedecanoyl phosphatidylcholine ("10-pyrene"), Caymen Chemical, Ann Arbor MI) a substrate for all calcium dependent PLA2s with the exception of cPLA2 and PAF-AH (LP-PLA2). Substrate solutions were prepared in reaction buffer consisting of 50 mM tris (pH = 7.4), 0.1 M NaCl, 2 mM CaCl2, 0.25% fatty acid-free albumin. The substrate forms phospholipids vesicles in this solution [37], and upon hydrolysis, releases fluorescent 10-pyrenyldecanoic acid (PDA). Plasma samples were 10% final and mixed with lysoPCs by gentle shaking for 100 sec, or they were derived from lysoPC-injected rats. All enzyme reactions were initiated with the addition of the substrate solution to the sPLA2 containing samples. Kinetic parameters including the properties of lysoPC inhibitors were determined by recording the initial maximum velocities (Vo) of enzyme reactions, obtained within 2 minutes of initiation. A detailed presentation of the calculations used in our kinetic analysis has been presented. Relative fluorescent units (RFU) were converted to product concentration using a standard curve made with pyrenyldecanoic acid (Invitrogen, Eugene, OR). Individual reactions were carried out in duplicate or triplicate and kinetic curves were produced using at least 6 substrate concentrations, with lysoPC or its vehicle (PBS with 8% ethanol). Representative Lineweaver-Burk and Michaelis-Menten plots as well as nonlinear regression analyses are presented in Results. Experiments were repeated at least 4 times with similar results. […] These calculations, and Km, Vmax and R^2 were made with statistical (INSTAT) and regression software (Prism), both from Graphpad (San Diego, CA).

The next assay has as its system group IA sPLA2. Put plainly: purified group IA sPLA2 enzyme activity in vitro with added lysoPC (10-pyrene substrate). The class given is biochemical, Naja mossambica. The conditions noted are these: for type of inhibition of group IA sPLA2: lower range of substrate concentrations, added lysoPCs; for Km / Vmax: 15 nM group IA sPLA2. The method, then: as §1, §2
The subject of assay [2] is plasma sPLA2. Description: plasma sPLA2 activity of rats after subcutaneous lysoPC injection. The class given is in vivo. The conditions noted are these: rat, subcutaneous 25 mg/kg, 2 hrs after injection; PDA generated in 1 hr. The method, then: Enzyme assays were conducted as in previous studies using a Victor 3 fluorescent reader (Perkin Elmer, Waltham, MA). The substrate was 1-palmitoyl-2-pyrenedecanoyl phosphatidylcholine ("10-pyrene"), Caymen Chemical, Ann Arbor MI) a substrate for all calcium dependent PLA2s with the exception of cPLA2 and PAF-AH (LP-PLA2). Substrate solutions were prepared in reaction buffer consisting of 50 mM tris (pH = 7.4), 0.1 M NaCl, 2 mM CaCl2, 0.25% fatty acid-free albumin. The substrate forms phospholipids vesicles in this solution [37], and upon hydrolysis, releases fluorescent 10-pyrenyldecanoic acid (PDA). Plasma samples were 10% final and mixed with lysoPCs by gentle shaking for 100 sec, or they were derived from lysoPC-injected rats. […] Kinetic parameters including the properties of lysoPC inhibitors were determined by recording the initial maximum velocities (Vo) of enzyme reactions, obtained within 2 minutes of initiation. […]
Rats were injected subcutaneously under the loose skin at the shoulders with synthetic stearoyl (n = 4) or palmitoyl (n = 4) lysoPCs (25 mg/kg) two hrs before sacrifice and compared to vehicle-injected rats (n = 8). The relative concentrations of active sPLA2 enzymes were measured in plasma samples of these animals by determining the total hydrolysis of substrate in 1 hr.

Broadly, the Ki is the equilibrium dissociation constant of an inhibitor or competing ligand from its target. In general, Km refers to the substrate concentration at which the rate is half of its maximum. As for `CCCCCCCCCCCCCCCCCC(=O)OC[C@@H](O)COP(=O)([O-])OCC[N+](C)(C)C` [Stearoyl, stearoyl lysoPC], the “type of inhibition of plasma sPLA2 enzyme activity” value in the assay on plasma sPLA2 [1] was “uncompetitive inhibitors”. In addition, the Ki on plasma sPLA2 [1] amounted to 34.2 ± 17.4 µM. The Michaelis-Menten constant (Km) in the assay with plasma sPLA2 [1] turned out to be 11.3 µM; in the assay with group IA sPLA2 (lysoPC 10 μM) it was 9.37 µM; with group IA sPLA2 (lysoPC 20 μM), 5.92 µM; in the assay with group IA sPLA2 (lysoPC 40 μM), 7.31 µM. Besides, the Vmax was 669.2 nM/min/ml in the assay with plasma sPLA2 [1], 221.9 μM/min/ml in the assay with group IA sPLA2 (lysoPC 10 μM), 156.2 μM/min/ml in the assay on group IA sPLA2 (lysoPC 20 μM) and 92.15 μM/min/ml in the assay with group IA sPLA2 (lysoPC 40 μM). Moreover, the “percent inhibition (percent reduction in Vo)” value in the assay with group IA sPLA2 (40 μM lysoPC preincubated with 5% albumin (> 600 μM), n = 4) was determined as 29.3 ± 1.6%; in the assay on group IA sPLA2 (40 μM lysoPC, standard buffer (0.25% albumin), n = 8) it was 63 ± 6%. The “type of inhibition of group IA sPLA2” value with group IA sPLA2 is reported as “Uncompetitive inhibition”. Besides, in the assay on plasma sPLA2 [2], the “range of plasma sPLA2 activities compared with vehicle-injected control rats” value was “significantly lower and narrower”.
For the compound `CCCCCCCCCCCCCCCC(=O)OC[C@@H](O)COP(=O)([O-])OCC[N+](C)(C)C` [Palmitoyl, palmitoyl lysoPC], in the assay on plasma sPLA2 [1], the “type of inhibition of plasma sPLA2 enzyme activity” value is given as “uncompetitive inhibitors”, the inhibition constant (Ki) stood at 25.9 ± 4 µM, the Km came to 16.1 µM and the Vmax turned out to be 684.7 nM/min/ml. Also, in the assay with group IA sPLA2, the “type of inhibition of group IA sPLA2” value is recorded as “Uncompetitive inhibition”. For the same compound, the “range of plasma sPLA2 activities compared with vehicle-injected control rats” value with plasma sPLA2 [2] was “significantly lower and narrower”.
Turning to `CCCCCCCCCC(=O)OC[C@@H](O)COP(=O)([O-])OCC[N+](C)(C)C` [Decanoyl, Decanoyl lysoPC, reference compound], the “inhibition of group IA sPLA2” value in the assay with group IA sPLA2 (40 μM lysoPC, 30 μM substrate) is given as “failed to show inhibition”. For the same compound, in the assay on group IA sPLA2 (lysoPC 40 μM), the Km came to 25 µM and the Vmax is reported as 342.4 μM/min/ml.

For the origin of these results see article PMC2580763, “Product inhibition of secreted phospholipase A2 may explain lysophosphatidylcholines' unexpected therapeutic properties” (Journal of Inflammation (London, England), 2008).
